This is an account of results in PubChem BioAssay AID328 (DTP/NCI, 2004).

“And” between values parts separate entries of the source, which are not always exact repeats. Equal values may be shown once. Inconclusive results and toxic doses are left out.

The test system of the test is BDF1 mice, P388 leukemia ip, median survival T/C. Put plainly: NCI In Vivo Anticancer Drug Screen. Data for tumor model P388 Leukemia (intraperitoneal) in B6D2F1 (BDF1) mice. Particulars: endpoint: median survival time, higher = longer survival. In short, it runs like this:
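Mice carrying the transplantable tumour receive compound or vehicle. Survival is followed in each arm, and the treated measure is divided by the vehicle measure.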

Setting [1] is: dose: 25.0 mg/kg/injection, schedule: Q01DX009 (ip), vehicle: saline with Tween-80.
Setting [2] is: dose: 50.0 mg/kg/injection, schedule: Q01DX009 (ip), vehicle: saline with Tween-80.
Setting [3] is: dose: 50.0 mg/kg/injection, schedule: Q04DX003 (ip), vehicle: saline with Tween-80.
Where [4] appears, read: dose: 100.0 mg/kg/injection, schedule: Q04DX003 (ip), vehicle: saline with Tween-80.
[5] abbreviates: dose: 200.0 mg/kg/injection, schedule: Q04DX003 (ip), vehicle: saline with Tween-80.
Setting [6] is: dose: 25.0 mg/kg/injection, schedule: Q01DX009 (ip), vehicle: Klucel (hydroxypropylcellulose) (HPC).
Setting [7] is: dose: 50.0 mg/kg/injection, schedule: Q01DX009 (ip), vehicle: Klucel (hydroxypropylcellulose) (HPC).
Setting [8] is: dose: 100.0 mg/kg/injection, schedule: Q01DX009 (ip), vehicle: Klucel (hydroxypropylcellulose) (HPC).
The mark [9] stands for this setting: dose: 6.25 mg/kg/injection, schedule: Q01DX009 (ip), vehicle: saline with Tween-80.
The mark [10] stands for this setting: dose: 100.0 mg/kg/injection, schedule: Q01DX009 (ip), vehicle: saline with Tween-80.
The mark [11] stands for this setting: dose: 100.0 mg/kg/injection, schedule: Q04DX003 (ip), vehicle: saline.

Turning to `O=C(c1cc(C(F)(F)F)cc(C(F)(F)F)c1)N1CC1`, the T/C (dose: 3.12 mg/kg/injection, schedule: Q01DX009 (ip), vehicle: water) was 100 % of control; the T/C (dose: 6.25 mg/kg/injection, schedule: Q01DX009 (ip), vehicle: water) is 105 % of control; the T/C (dose: 12.5 mg/kg/injection, schedule: Q01DX009 (ip), vehicle: water) was 114 % of control; the T/C (dose: 25.0 mg/kg/injection, schedule: Q01DX009 (ip), vehicle: water) is 100 % of control; the T/C (dose: 50.0 mg/kg/injection, schedule: Q01DX009 (ip), vehicle: water) was 110 % of control.

For `CCCCC1C(=O)OC(C(C)C(O)CCCN=C(N)N)C(C)C=C(C)CCCCC(O)CC(O)CC(O)CC(O)CC(O)C(OC2OC(CO)C(O)C2O)C=C(C)C(O)CCCC(O)CCCC(O)CCC(C)C1O` (centres undefined), the T/C is 90 % of control (dose: 0.3 mg/kg/injection, schedule: Q01DX010 (ip), vehicle: carboxymethylcellulose (CMC)); 90 % of control (dose: 0.6 mg/kg/injection, schedule: Q01DX010 (ip), vehicle: carboxymethylcellulose (CMC)); 95 % of control (dose: 1.2 mg/kg/injection, schedule: Q01DX010 (ip), vehicle: carboxymethylcellulose (CMC)); 90 % of control (dose: 2.5 mg/kg/injection, schedule: Q01DX010 (ip), vehicle: carboxymethylcellulose (CMC)).

As for `CCCCCCCCCCCCN1CCCC(O)C1` (centres undefined), the T/C was 104 % of control under setting [1], 100 % of control under setting [2], 120 % of control under setting [3] and 90 % of control under setting [4].

With `CCCCCCCCCCCCCCCCOc1ccc(CC)cc1`, the T/C (dose: 50.0 mg/kg/injection, schedule: Q01DX001 (ip), vehicle: saline with Tween-80) is 95 % of control; the T/C (dose: 100.0 mg/kg/injection, schedule: Q01DX001 (ip), vehicle: saline with Tween-80) was 90 % of control; the T/C (dose: 200.0 mg/kg/injection, schedule: Q01DX001 (ip), vehicle: saline with Tween-80) is 100 % of control.

`CCN(CCP(c1ccccc1)c1ccccc1)CCP(c1ccccc1)c1ccccc1`: the T/C reads like this: under setting [2], 86 % of control; (dose: 66.0 mg/kg/injection, schedule: Q04DX003 (ip), vehicle: saline with Tween-80) 150 % of control; under setting [4], 159 % of control.

With `CCOC(=O)N1Cc2cc3cc(OC)c(OC)cc3nc2C1`, the T/C under setting [4] was 105 % of control; the T/C under setting [5] is 90 % of control; the T/C (dose: 400.0 mg/kg/injection, schedule: Q04DX003 (ip), vehicle: saline with Tween-80) was 105 % of control.

Take `O=S(=O)(O)c1ccc(-c2ccccc2)cc1`: the T/C under setting [6] is 95 % of control; the T/C under setting [7] was 87 % of control; the T/C under setting [8] is 95 % of control; the T/C (dose: 100.0 mg/kg/injection, schedule: Q04DX003 (ip), vehicle: Klucel (hydroxypropylcellulose) (HPC)) is 88 % of control.

On to `CCOC(=O)Nc1nc2ccccc2[nH]1`, for which the T/C is, setting by setting: under setting [9], 98 % of control; (dose: 12.5 mg/kg/injection, schedule: Q01DX009 (ip), vehicle: saline with Tween-80) 116 % of control; under setting [1], 109 % of control; under setting [2], 105 % of control.

Turning to `O=C(CBr)N1CCC2(CC1)SSC1(CCN(C(=O)CBr)CC1)S2`, the T/C is, setting by setting: (dose: 3.12 mg/kg/injection, schedule: Q01DX009 (ip), vehicle: saline with Tween-80) 112 % of control; under setting [9], 95 % of control and 111 % of control; (dose: 10.0 mg/kg/injection, schedule: Q04DX003 (ip), vehicle: saline with Tween-80) 122 % of control; (dose: 20.0 mg/kg/injection, schedule: Q04DX003 (ip), vehicle: saline with Tween-80) 120 % of control; (dose: 25.0 mg/kg/injection, schedule: Q04DX003 (ip), vehicle: saline with Tween-80) 123 % of control; (dose: 40.0 mg/kg/injection, schedule: Q04DX003 (ip), vehicle: saline with Tween-80) 114 % of control. The T/C is 113 % of control under setting [3], 112 % of control under setting [10], 118 % of control under setting [4] and 102 % of control under setting [5].

Turning to `COC(=O)[C@H]1[C@H]2C[C@@H]3c4[nH]c5cc(OC)ccc5c4CCN3C[C@H]2C[C@@H](OC(=O)c2cc(OC)c(OC)c(OC)c2)[C@@H]1OC`, the T/C (dose: 0.37 mg/kg/injection, schedule: Q01DX009 (ip), vehicle: saline with Tween-80) is 95 % of control.

`O=C1NC(=O)C2(CCCCCC2)N1`: the T/C runs as follows: under setting [2], 100 % of control; under setting [3], 112 % of control; under setting [10], 112 % of control; (dose: 100.0 mg/kg/injection, schedule: Q04DX003 (ip), vehicle: saline sonified) 95 % of control; under setting [4], 104 % of control; (dose: 200.0 mg/kg/injection, schedule: Q01DX009 (ip), vehicle: saline with Tween-80) 108 % of control. The T/C reads like this: (dose: 200.0 mg/kg/injection, schedule: Q04DX003 (ip), vehicle: saline sonified) 95 % of control; under setting [5], 100 % of control; (dose: 400.0 mg/kg/injection, schedule: Q04DX003 (ip), vehicle: saline sonified) 104 % of control.

Consider `CC(C)C1(C(C)C)OCCO1`, for which the T/C is, setting by setting: (dose: 50.0 mg/kg/injection, schedule: Q04DX003 (ip), vehicle: saline) 87 % of control; under setting [11], 108 % of control; (dose: 200.0 mg/kg/injection, schedule: Q04DX003 (ip), vehicle: saline) 100 % of control.

Turning to `Nc1nc(N)c2cc(NCc3ccccc3Cl)ccc2n1`, the T/C is 104 % of control (dose: 2.34 mg/kg/injection, schedule: Q04DX003 (ip), vehicle: Klucel (hydroxypropylcellulose) (HPC)); 100 % of control (dose: 4.68 mg/kg/injection, schedule: Q04DX003 (ip), vehicle: Klucel (hydroxypropylcellulose) (HPC)); 105 % of control (dose: 6.25 mg/kg/injection, schedule: Q01DX009 (ip), vehicle: Klucel (hydroxypropylcellulose) (HPC)); 122 % of control (dose: 9.37 mg/kg/injection, schedule: Q04DX003 (ip), vehicle: Klucel (hydroxypropylcellulose) (HPC)); 110 % of control (dose: 12.5 mg/kg/injection, schedule: Q01DX009 (ip), vehicle: Klucel (hydroxypropylcellulose) (HPC)); 100 % of control (dose: 18.75 mg/kg/injection, schedule: Q04DX003 (ip), vehicle: Klucel (hydroxypropylcellulose) (HPC)). The T/C under setting [6] is 100 % of control.

`Nc1cc(=O)n(Cc2ccco2)c(=S)[nH]1`: the T/C reads like this: (dose: 50.0 mg/kg/injection, schedule: Q01DX005 (ip), vehicle: saline with Tween-80) 93 % of control; (dose: 100.0 mg/kg/injection, schedule: Q01DX005 (ip), vehicle: saline with Tween-80) 102 % of control; (dose: 200.0 mg/kg/injection, schedule: Q01DX005 (ip), vehicle: saline with Tween-80) 100 % of control.

With `COc1cc2c(cc1OC)C(C#N)N(C(=O)c1ccccc1)C=C2` (centres undefined), the T/C (dose: 25.0 mg/kg/injection, schedule: Q04DX003 (ip), vehicle: water) was 114 % of control; the T/C (dose: 50.0 mg/kg/injection, schedule: Q04DX003 (ip), vehicle: water) is 99 % of control; the T/C (dose: 100.0 mg/kg/injection, schedule: Q04DX003 (ip), vehicle: water) was 94 % of control; the T/C (dose: 200.0 mg/kg/injection, schedule: Q04DX003 (ip), vehicle: water) was 94 % of control; the T/C (dose: 400.0 mg/kg/injection, schedule: Q04DX003 (ip), vehicle: water) was 112 % of control.

Turning to `CC(=O)/C(C)=C/C=O`, the T/C (dose: 0.25 mg/kg/injection, schedule: Q01DX009 (ip), vehicle: water) was 116 % of control; the T/C (dose: 0.5 mg/kg/injection, schedule: Q01DX009 (ip), vehicle: water) is 89 % of control and 96 % of control and 116 % of control; the T/C (dose: 1.0 mg/kg/injection, schedule: Q01DX009 (ip), vehicle: water) is 97 % of control and 103 % of control and 116 % of control; the T/C (dose: 2.0 mg/kg/injection, schedule: Q01DX009 (ip), vehicle: water) is 94 % of control and 97 % of control; the T/C (dose: 4.0 mg/kg/injection, schedule: Q01DX009 (ip), vehicle: water) was 96 % of control and 97 % of control and 116 % of control; the T/C (dose: 8.0 mg/kg/injection, schedule: Q01DX009 (ip), vehicle: water) is 103 % of control.

For `CSc1ncnc2c1ncn2C1CCCO1` (centres undefined), the T/C is 95 % of control under setting [6]; 119 % of control under setting [7]; 109 % of control under setting [8]; 104 % of control under setting [11]; 87 % of control (dose: 150.0 mg/kg/injection, schedule: Q01DX009 (ip), vehicle: Klucel (hydroxypropylcellulose) (HPC)).
